Data: patent publication US20040110138A1, “Method for the detection of multiple genetic targets” (University of Ottawa, priority 2002, published 2004)

Tested on: coagulase-negative Staphylococci (CoNS)
Experiment: Oxacillin MIC by agar dilution (NCCLS M100-S10, M7), isolate retest
Type: cell-based
Description: Blood culture bottles that were flagged as positive by the BacT/Alert system (Organon Teknika Corp., Durham N.C.) were processed by the Microbiology laboratory using standard microbiologic methods (Kloos & Bannerman, 1999). S. aureus was identified by a positive tube coagulase test. Oxacillin susceptibility for S. aureus was determined using the oxacillin salt agar screen method (NCCLS M100-S10, M7) and for coagulase-negative Staphylococci (CoNS) using disk diffusion testing (NCCLS M100-S10, M2).
In cases where there were discrepancies between the mecA PCR result of the blood culture bottle contents and the initial susceptibility result for the isolate recovered from the bottle, the isolate was re-tested for the mecA gene, oxacillin MIC was determined by agar dilution (NCCLS M100-S10, M7) and disk diffusion testing for oxacillin was repeated (NCCLS M100-S10, M2).

## Cc1onc(-c2ccccc2)c1C(=O)N[C@@H]1C(=O)N2[C@@H]1SC(C)(C)[C@@H]2C(=O)O [Oxacillin]
Isolate from bottle 8, initially reported as MS-CoNS
  Oxacillin MIC: 2.0
Isolate from bottle 10, initially reported as MR-CoNS
  Oxacillin MIC: 0.5
